Results from patent US12077503B2, “Substituted cyclic amides and their use as herbicides” (FMC CORPORATION, priority 2015, dated 2024).

Columns and labels:
Format in all cases: in vivo
[1] = tested on: Kochia (Kochia scoparia); test: Test A preemergence; conditions: Bassia scoparia, pre-emergence, 240 h, 0 to 100 scale where 0 is no effect and 100 is complete control, read-out: Kochia plant response rating
Procedure, shortened: (§1)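 Greenhouse, ~10 d after spray; visual injury vs untreated controls, 0 = no effect, 100 = complete control. Preemergence: directed soil spray over planted seeds. Postemergence: plants 2–10 cm, 1–2 leaf stage. Loam/sand blend. Compound in non-phytotoxic solvent with surfactant.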

[2] = tested on: pigweed (Amaranthus retroflexus); test: Test A preemergence; conditions: Amaranthus retroflexus, pre-emergence, 240 h, 0 to 100 scale where 0 is no effect and 100 is complete control, read-out: Pigweed plant response rating
[3] = tested on: ryegrass, Italian (Italian ryegrass, Lolium multiflorum); test: Test A preemergence; conditions: Lolium multiflorum, pre-emergence, 240 h, 0 to 100 scale where 0 is no effect and 100 is complete control, read-out: Ryegrass, Italian plant response rating
Procedure, shortened: as §1

[4] = tested on: ragweed (common ragweed, Ambrosia elatior); test: Test A preemergence; conditions: Ambrosia artemisiifolia, pre-emergence, 240 h, 0 to 100 scale where 0 is no effect and 100 is complete control, read-out: Ragweed plant response rating
Procedure, shortened: as §1

[5] = tested on: barnyardgrass (Echinochloa crus-galli); test: Test A preemergence; conditions: Echinochloa crus-galli, pre-emergence, 240 h, 0 to 100 scale where 0 is no effect and 100 is complete control, read-out: Barnyardgrass plant response rating
Procedure, shortened: as §1

[6] = tested on: giant foxtail (Setaria faberii); test: Test A preemergence; conditions: Setaria faberi, pre-emergence, 240 h, 0 to 100 scale where 0 is no effect and 100 is complete control, read-out: Foxtail, Giant plant response rating
Procedure, shortened: as §1

[7] = tested on: Kochia (Kochia scoparia); test: Test A postemergence; conditions: Bassia scoparia, post-emergence, 240 h
Procedure, shortened: as §1

[8] = tested on: pigweed (Amaranthus retroflexus); test: Test A postemergence; conditions: Amaranthus retroflexus, post-emergence, 240 h
Procedure, shortened: as §1

[9] = tested on: corn (Zea mays); test: Test A postemergence; conditions: Zea mays, post-emergence, 240 h
Procedure, shortened: as §1

[10] = tested on: Galium (catchweed bedstraw, Galium aparine); test: Test A postemergence; conditions: Galium, post-emergence, 240 h
Procedure, shortened: as §1

[11] = tested on: ryegrass, Italian (Italian ryegrass, Lolium multiflorum); test: Test A postemergence; conditions: Lolium multiflorum, post-emergence, 240 h
Procedure, shortened: as §1

[12] = tested on: ragweed (common ragweed, Ambrosia elatior); test: Test A postemergence; conditions: Ambrosia artemisiifolia, post-emergence, 240 h
Procedure, shortened: as §1

[13] = tested on: barnyardgrass (Echinochloa crus-galli); test: Test A postemergence; conditions: Echinochloa crus-galli, post-emergence, 240 h
Procedure, shortened: as §1

[14] = tested on: wheat (Triticum aestivum); test: Test A postemergence; conditions: Triticum aestivum, post-emergence, 240 h
Procedure, shortened: as §1

[15] = tested on: giant foxtail (Setaria faberii); test: Test A postemergence; conditions: Setaria faberi, post-emergence, 240 h
Procedure, shortened: as §1

[16] = tested on: blackgrass (Alopecurus myosuroides); test: Test A postemergence; conditions: Alopecurus myosuroides, post-emergence, 240 h
Procedure, shortened: as §1

[17] = tested on: ducksalad (Heteranthera limosa); test: Test B flooded paddy test; conditions: Heteranthera limosa, 250 g ai/ha, Flood; 0 to 100 scale where 0 is no effect and 100 is complete control; read-out: Ducksalad plant response rating
Procedure, shortened: (§2)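 Evaluation by eye, against controls, occurred 13–15 d post-treatment in a greenhouse, using a 0 (no effect) to 100 (complete control) scale. Application was into the paddy water, 3 cm deep over the soil, on 2-leaf plants.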

[18] = tested on: rice (Oryra sativa); test: Test B flooded paddy test; conditions: Oryza sativa, 250 g ai/ha, Flood; 0 to 100 scale where 0 is no effect and 100 is complete control; read-out: Rice plant response rating
Procedure, shortened: as §2

[19] = tested on: barnyardgrass (Echinochloa crus-galli); test: Test B flooded paddy test; conditions: Echinochloa crus-galli, 250 g ai/ha, Flood; 0 to 100 scale where 0 is no effect and 100 is complete control; read-out: Barnyardgrass plant response rating
Procedure, shortened: as §2

[20] = tested on: sedge, umbrella (small-flower umbrella sedge, Cyperus difformis); test: Test B flooded paddy test; conditions: Cyperus difformis, 250 g ai/ha, Flood; 0 to 100 scale where 0 is no effect and 100 is complete control; read-out: Sedge, Umbrella plant response rating
Procedure, shortened: as §2

[21] = 125 g ai/ha, preemergence, approx. 10 d

CSc1ccccc1NC(=O)[C@H]1C(=O)N(C)C[C@@H]1c1ccc(F)c(Oc2ccccc2)c1 [Compound 1142]
pest or weed control at 31 g/ha ([1]; 31 g ai/ha, Preemergence): 0% | pest or weed control at 125 g/ha [1, 21]: 0% | pest or weed control at 31 g/ha ([2]; 31 g ai/ha, Preemergence): 0% | pest or weed control at 125 g/ha [2, 21]: 60% | pest or weed control at 31 g/ha ([3]; 31 g ai/ha, Preemergence): 0% | pest or weed control at 125 g/ha [3, 21]: 0% | pest or weed control at 31 g/ha ([4]; 31 g ai/ha, Preemergence): 0% | pest or weed control at 125 g/ha [4, 21]: 0% | pest or weed control at 31 g/ha ([5]; 31 g ai/ha, Preemergence): 0% | pest or weed control at 125 g/ha [5, 21]: 30% | pest or weed control at 31 g/ha ([6]; 31 g ai/ha, Preemergence): 30% | pest or weed control at 125 g/ha [6, 21]: 90% | pest or weed control at 125 g/ha ([7]; 125 g ai/ha, postemergence, visual injury on 0 to 100 scale (0 no effect, 100 complete control), approx. 10 d, read-out: Kochia plant response rating): 0% | pest or weed control at 31 g/ha ([7]; Postemergence, 31 g ai/ha, visual injury after approx. 10 d, 0 to 100 scale, 0 no effect, 100 complete control, read-out: Plant response rating, Kochia): 0% | pest or weed control at 125 g/ha ([8]; 125 g ai/ha, postemergence, visual injury vs untreated controls after approx. 10 d, 0 = no effect, 100 = complete control, read-out: Pigweed plant response rating (0 to 100 scale)): 30% | pest or weed control at 31 g/ha ([8]; Postemergence, 31 g ai/ha, visual injury after approx. 10 d, 0 to 100 scale, 0 no effect, 100 complete control, read-out: Plant response rating, Pigweed): 0% | plant injury at 125 g/ha ([9]; 125 g ai/ha, postemergence, visual injury on 0 to 100 scale (0 no effect, 100 complete control), approx. 10 d, read-out: Corn plant response rating): 0% | Corn plant response rating (crop injury, 0 = no effect, 100 = complete kill) at 31 g/ha ([9]; Postemergence, 31 g ai/ha, visual injury after approx. 10 d, 0 to 100 scale, 0 no effect, 100 complete control): 0% | pest or weed control at 125 g/ha ([10]; 125 g ai/ha, postemergence, visual injury on 0 to 100 scale (0 no effect, 100 complete control), approx. 10 d, read-out: Galium plant response rating): 30% | pest or weed control at 31 g/ha ([10]; Postemergence, 31 g ai/ha, visual injury after approx. 10 d, 0 to 100 scale, 0 no effect, 100 complete control, read-out: Plant response rating, Galium): 0% | pest or weed control at 125 g/ha ([11]; 125 g ai/ha, postemergence, visual injury vs untreated controls after approx. 10 d, 0 = no effect, 100 = complete control, read-out: Ryegrass, Italian plant response rating (0 to 100 scale)): 0% | pest or weed control at 31 g/ha ([11]; Postemergence, 31 g ai/ha, visual injury after approx. 10 d, 0 to 100 scale, 0 no effect, 100 complete control, read-out: Plant response rating, Ryegrass, Italian): 0% | pest or weed control at 125 g/ha ([12]; 125 g ai/ha, postemergence, visual injury vs untreated controls after approx. 10 d, 0 = no effect, 100 = complete control, read-out: Ragweed plant response rating (0 to 100 scale)): 0% | pest or weed control at 31 g/ha ([12]; Postemergence, 31 g ai/ha, visual injury after approx. 10 d, 0 to 100 scale, 0 no effect, 100 complete control, read-out: Plant response rating, Ragweed): 0% | pest or weed control at 125 g/ha ([13]; 125 g ai/ha, postemergence, visual injury on 0 to 100 scale (0 no effect, 100 complete control), approx. 10 d, read-out: Barnyardgrass plant response rating): 30% | pest or weed control at 31 g/ha ([13]; Postemergence, 31 g ai/ha, visual injury after approx. 10 d, 0 to 100 scale, 0 no effect, 100 complete control, read-out: Plant response rating, Barnyardgrass): 0% | plant injury at 125 g/ha ([14]; 125 g ai/ha, postemergence, visual injury vs untreated controls after approx. 10 d, 0 = no effect, 100 = complete control, read-out: Wheat plant response rating (0 to 100 scale)): 0% | plant injury at 31 g/ha ([14]; Postemergence, 31 g ai/ha, visual injury after approx. 10 d, 0 to 100 scale, 0 no effect, 100 complete control, read-out: Plant response rating, Wheat): 0% | pest or weed control at 125 g/ha ([15]; 125 g ai/ha, postemergence, visual injury on 0 to 100 scale (0 no effect, 100 complete control), approx. 10 d, read-out: Foxtail, Giant plant response rating): 60% | pest or weed control at 31 g/ha ([15]; Postemergence, 31 g ai/ha, visual injury after approx. 10 d, 0 to 100 scale, 0 no effect, 100 complete control, read-out: Plant response rating, Foxtail, Giant): 0% | pest or weed control at 125 g/ha ([16]; 125 g ai/ha, postemergence, visual injury on 0 to 100 scale (0 no effect, 100 complete control), approx. 10 d, read-out: Blackgrass plant response rating): 0% | pest or weed control at 31 g/ha ([16]; Postemergence, 31 g ai/ha, visual injury after approx. 10 d, 0 to 100 scale, 0 no effect, 100 complete control, read-out: Plant response rating, Blackgrass): 0% | pest or weed control at 250 g/ha [17]: 0% | pest or weed control at 250 g/ha [18]: 0% | pest or weed control at 250 g/ha [19]: 0% | pest or weed control at 250 g/ha [20]: 0%
